We go through seven molecules from article PMC2920492 (Journal of medicinal chemistry, 2010).

The subject of assay [1] is global H3K4me2. The settings on record: P19 cell line; cited from earlier work.
The subject of the next assay is global H3K9me2. The settings on record: HCT116 cells, 48 hr exposure, increasing concentrations; cited from earlier work.
In assay [2] the target is T1, recombinant human LSD1 (Homo sapiens, UniProt O60341). The settings on record: 10 μM; cited from earlier work.
Assay [3] has as its system global H3K4me2. The settings on record: HCT116 cells, 48 hr exposure, increasing concentrations; cited from earlier work.
For assay [4], the system named is global H3K4me1. To be noted: HCT116 cells, 48 hr exposure, increasing concentrations; cited from earlier work.
The test system of assay [5] is HCT116 human colon carcinoma. The settings on record: compound alone; cited from earlier work.
Assay [6] addresses T1, recombinant human LSD1. The class given is biochemical. To be noted: read-out: reduction of LSD1 activity (inhibition), 10 μM.
Assay [7] relates to global H3K4me2. Description: Global H3K4me2 levels by quantitative Western blot in Calu-6 cells. The class given is cell-based, human. To be noted: 10 μM. In general terms: A western blot detects proteins with antibodies after separation by electrophoresis.
For another assay, the system named is GATA4. Put plainly: GATA4 mRNA re-expression by qPCR in Calu-6 cells. The format is cell-based, human. The settings on record: 5 and 10 μM, 24 h. In general terms: Quantitative PCR measures a nucleic acid by following its amplification.
Assay [8] relates to global H3K4me1. Description: Global H3K4me1 levels by quantitative Western blot in Calu-6 cells. The format is cell-based, human. The settings on record: 10 μM.
A further assay concerns SFRP2. Put plainly: SFRP2 mRNA re-expression by qPCR in Calu-6 cells. The class given is cell-based, human. The settings on record: 10 μM, 24 h.
Assay [9] relates to recombinant LSD1/CoRest complex. To be noted: cited from earlier work.

Consider `N[C@@H]1C[C@H]1c1ccccc1` (racemic) [tranylcypromine], for which, in the assay on global H3K4me2 [1], the “global levels of H3K4me2” value is “increase”.

As for `C/N=C(\NC)NCCCNCCCNCCCN/C(=N/C)NC.Cl` [Compound 1c], the “global H3K9me2 levels” value in the assay on global H3K9me2 is on record as “not affecting”. For the same molecule, the “%LSD1 activity remaining” value on recombinant human LSD1 [2] is 14.1 (from [ref. 25]) %. In the assay with global H3K4me2 [3], the “global H3K4me2” value is listed as “significant global increases”. In the assay with global H3K4me1 [4], the “global H3K4me1” value is reported as “significant global increases”.

On to `Cl.N=C(NCCCNCCCCCCCNCCCNC(=N)NC(=N)NCCC(c1ccccc1)c1ccccc1)NC(=N)NCCC(c1ccccc1)c1ccccc1` [Compound 2d], for which the “global H3K9me2 levels” value in the assay on global H3K9me2 is recorded as “not affecting”. The “effect on tumor cell growth” value in assay [5] is recorded as “little effect”. Further, in the assay with global H3K4me2 [3], the “global H3K4me2” value is “significant global increases”. In addition, the inhibition (commonly the share of the control response that was lost under treatment) at 10 µM at recombinant human LSD1 [6] was 82.9%. Moreover, the “global H3K4me1” value in the assay on global H3K4me1 [4] was “significant global increases”.

In the case of `Cl.Cl.S=C(NCCCNCCCCCCCNCCCNC(=S)NCC(c1ccccc1)c1ccccc1)NCC(c1ccccc1)c1ccccc1` [Compound 25, 1,15-bis-{3-[1-(2,2-diphenylethyl)thioureado]}-4,12-diazapentadecane], the “global H3K4me2 level” value with global H3K4me2 [7] (24 h) is recorded as “significant increases”; in the assay on global H3K4me2 [7] (48 h) it was “most dramatic increases”. Besides, in the assay on GATA4, the “effect on GATA4 levels” value was “did not produce significant increases”. Besides, the “global H3K4me1 level” value was “significant increases” in the assay on global H3K4me1 [8] (24 h) and “most dramatic increases” in the assay on global H3K4me1 [8] (48 h).

Consider `Cl.Cl.S=C(NCCCNCCCCNCCCNC(=S)NCC(c1ccccc1)c1ccccc1)NCC(c1ccccc1)c1ccccc1` [Compound 26, 1,12-bis-{3-[1-(2,2-diphenylethyl)thioureado]}-4,9-diazadodecane], for which the “global H3K4me2 level” value in the assay on global H3K4me2 [7] (24 h) is reported as “decreased”; in the assay with global H3K4me2 [7] (48 h), “reduction”. Also, the “effect on GATA4 levels” value in the assay on GATA4 is on record as “did not produce significant increases”. The figures for the “global H3K4me1 level” value with global H3K4me1 [8] (24 h) and in the assay on global H3K4me1 [8] (48 h) were “significant increase” and “increase”, respectively.

As for `Cl.Cl.S=C(NCCCNCCCNCCCNC(=S)NCC(c1ccccc1)c1ccccc1)NCC(c1ccccc1)c1ccccc1` [Compound 27, 1,11-bis-{3-[1-(2,2-diphenylethyl)thioureado]}-4,8-diazaundecane], the “global H3K4me2 level” value with global H3K4me2 [7] (24 h) is reported as “significant increases”. The “increase in SFRP2 expression” value with SFRP2 stood at 4.8 fold. For the same molecule, in the assay with global H3K4me1 [8] (24 h), the “global H3K4me1 level” value is “significant increases”.

Regarding `NNCCc1ccccc1` [phenelzine], the nucleosomal demethylation result in assay [9] is reported as “inactivate”. Moreover, the “global levels of H3K4me2” value in the assay on global H3K4me2 [1] is given as “increase”.
